Here are results for twelve molecules from patent publication US8987195B2 (priority 2012, dated 2015).

Like-named read-outs stand apart in the source and are kept apart here.

One experiment has as its system HCV genotype 1b replicon. Description: HCV replicon assay, genotype 1b replicon EC50. As to conditions: Hepatitis C virus, read-out: EC50 [gt-1b]. The format is cell-based, Hepatitis C virus. Put shortly: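 Replicon cells (Neo^r, some luciferase:Neo^r fusion); G418 removed at plating; compound dilution series, 24-48 h. Readout: RNA by 32P-probe hybridization/protection or TaqMan, normalized to cyclophilin A RNA, or luciferase. EC50 vs DMSO control, 4-parameter fit.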
For orientation: In antiviral work, replicon cells carry a viral genome segment that copies itself.

Experiment [1] has as its target HCV NS3/4A protease genotype 1b (Hepatitis C virus genotype 1b, UniProt P26663). Description: HCV NS3/4A protease time-resolved fluorescence (TRF) assay, Ki against genotype 1b. The format is biochemical. Put shortly: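 Enzyme was pre-incubated 30 min with inhibitor in HEPES pH 7.5 buffer (150 mM NaCl, 15% glycerol, 10 mM DTT). Reaction ran 2.5 h at room temperature with 25 nM europium TRF peptide substrate, read at ex 340/em 615 nm. Enzyme levels: 0.2 nM (1b), 0.4 nM (A156T), 0.025 nM (3a). Ki came from four-parameter IC50 via IC50=Ki(1+[S]/KM).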

Setting [2] is: IC50 [gt-1b] (nM), NS3/4A genotype 1b, enzyme 0.2 nM, K+ salt.
Setting [3] is: IC50 [gt-1b], NS3/4A protease TRF assay, genotype 1b enzyme 0.2 nM.
Setting [4] is: IC50 [gt-1b] (nM), NS3/4A genotype 1b, enzyme 0.2 nM.

For `COc1ccc2nc(C)c3c(c2c1)CC[C@]1(C[C@H]2C(=O)N[C@]4(C(=O)NS(=O)(=O)C5(C)CC5)C[C@H]4/C=C\CCCCC[C@H](NC(=O)OC4CCCC4C)C(=O)N2C1)O3` (stereo partly drawn) [Example 200, 2-methylcyclopentyl [(2R,6S,12Z,13aS,14aR,16aS)-9′-methoxy-5′-methyl-14a-{[(1-methylcyclopropyl)sulfonyl]carbamoyl}-5,16-dioxo-1,1′,2′,5,6,7,8,9,10,11,13a,14,14a,15,16,16a-hexadecahydrospiro[cyclopropa[e]pyrrolo[1,2-a][1,4]diazacyclopentadecine-2,3′-pyrano[2,3-c]quinolin]-6-yl]carbamate], the EC50 in the experiment on HCV genotype 1b replicon (genotype 1b replicon, K+ salt) was found to be 0.369 nM. In addition, in experiment [1] (setting [2]), the IC50 was 0.005 nM.
`COc1ccc2nc(C3CCC3)c3c(c2c1)CC[C@]1(C[C@H]2C(=O)NC4(C(=O)NS(=O)(=O)C5(C)CC5)C[C@H]4/C=C\CCCCC[C@H](NC(=O)OC(C)(C)C)C(=O)N2C1)O3` (stereo partly drawn) [Example 46, tert-Butyl (1aR,3aS,3′R,9S,16aS,Z)-5′-cyclobutyl-9′-methoxy-1a-(1-methylcyclopropylsulfonylcarbamoyl)-3,8-dioxo-1a,1′,2,2′,3,3a,4,6,8,9,10,11,12,13,14,16a-hexadecahydro-1H-spiro[cyclopropa[e]pyrrolo[1,2-a][1,4]diazacyclopentadecine-5,3′-pyrano[2,3-c]quinoline]-9-ylcarbamate]: the concentration for a half-maximal effect (EC50) with HCV genotype 1b replicon (genotype 1b replicon, K+ salt) amounted to 0.4 nM. In addition, in experiment [1] (setting [2]), the half-maximal inhibitory concentration (IC50) was found to be 0.02 nM.
With `CCc1nc2ccc(OC)cc2c2c1O[C@]1(CC2)C[C@H]2C(=O)N[C@]3(C(=O)NS(=O)(=O)C4(C)CC4)C[C@H]3/C=C\CCCCC[C@H](NC(=O)O[C@@H](C)C(C)C)C(=O)N2C1` [Example 434, (2S)-3-methylbutan-2-yl [(2R,6S,12Z,13aS,14aR,16aS)-5′-ethyl-9′-methoxy-14a-{[(1-methylcyclopropyl)sulfonyl]carbamoyl}-5,16-dioxo-1,1′,2′,5,6,7,8,9,10,11,13a,14,14a,15,16,16a-hexadecahydrospiro[cyclopropa[e]pyrrolo[1,2-a][1,4]diazacyclopentadecine-2,3′-pyrano[2,3-c]quinolin]-6-yl]carbamate], in the experiment with HCV genotype 1b replicon (HCV replicon, genotype 1b), the concentration giving a half-maximal response (EC50) amounted to 1.78 nM. In addition, in experiment [1] (setting [3]), the IC50 came to 0.012 nM.
`Cc1nc2ccccc2c2c1O[C@]1(CC2)C[C@H]2C(=O)N[C@]3(C(=O)NS(=O)(=O)C4(C)CC4)C[C@H]3/C=C\CCCCC[C@H](NC(=O)OC3(C4CC4)CC3)C(=O)N2C1` [Example 131, 1,1′-bi(cyclopropyl)-1-yl [(2R,6S,12Z,13aS,14aR,16aS)-5′-methyl-14a-{[(1-methylcyclopropyl)sulfonyl]carbamoyl}-5,16-dioxo-1,1′,2′,5,6,7,8,9,10,11,13a,14,14a,15,16,16a-hexadecahydrospiro[cyclopropa[e]pyrrolo[1,2-a][1,4]diazacyclopentadecine-2,3′-pyrano[2,3-c]quinolin]-6-yl]carbamate]: the EC50 in the experiment on HCV genotype 1b replicon (genotype 1b replicon) turned out to be 1.28 nM. Moreover, the half-maximal inhibitory concentration (IC50) in experiment [1] (setting [4]) stood at 0.003 nM.
As to `Cc1nc2cc(F)c(F)cc2c2c1O[C@]1(CC2)C[C@H]2C(=O)N[C@]3(C(=O)NS(=O)(=O)C4(C)CC4)C[C@H]3/C=C\CCCCC[C@H](NC(=O)OC(C)(C)C)C(=O)N2C1` [Example 188, tert-butyl [(2R,6S,12Z,13aS,14aR,16aS)-8′,9′-difluoro-5′-methyl-14a-{[(1-methylcyclopropyl)sulfonyl]carbamoyl}-5,16-dioxo-1,1′,2′,5,6,7,8,9,10,11,13a,14,14a,15,16,16a-hexadecahydrospiro[cyclopropa[e]pyrrolo[1,2-a][1,4]diazacyclopentadecine-2,3′-pyrano[2,3-c]quinolin]-6-yl]carbamate], the concentration for a half-maximal effect (EC50) in the experiment on HCV genotype 1b replicon (genotype 1b replicon) turned out to be 3.85 nM. Moreover, the IC50 in experiment [1] (setting [4]) is 0.006 nM.
Turning to `Cc1nc2ccc(Cl)cc2c2c1O[C@]1(CC2)C[C@H]2C(=O)N[C@]3(C(=O)NS(=O)(=O)C4(C)CC4)C[C@H]3/C=C\CCCCC[C@H](NC(=O)OC3CCC3)C(=O)N2C1` [Example 185, cyclobutyl [(2R,6S,12Z,13aS,14aR,16aS)-9′-chloro-5′-methyl-14a-{[(1-methylcyclopropyl)sulfonyl]carbamoyl}-5,16-dioxo-1,1′,2′,5,6,7,8,9,10,11,13a,14,14a,15,16,16a-hexadecahydrospiro[cyclopropa[e]pyrrolo[1,2-a][1,4]diazacyclopentadecine-2,3′-pyrano[2,3-c]quinolin]-6-yl]carbamate], the half-maximal effective concentration (EC50) in the experiment on HCV genotype 1b replicon (genotype 1b replicon, K+ salt) was determined as 4.14 nM. Moreover, the IC50 in experiment [1] (setting [2]) was determined as 0.005 nM.
For the molecule `CC(C)(OC(=O)N[C@H]1CCCCC/C=C\[C@@H]2C[C@@]2(C(=O)NS(=O)(=O)C2(C)CC2)NC(=O)[C@@H]2C[C@]3(CCc4c(c(C5CC5)nc5ccc6c(c45)OCO6)O3)CN2C1=O)C(F)(F)F` [Example 322, 1,1,1-trifluoro-2-methylpropan-2-yl [(2R,6S,12Z,13aS,14aR,16aS)-7′-cyclopropyl-14a-{[(1-methylcyclopropyl)sulfonyl]carbamoyl}-5,16-dioxo-1,5,6,7,8,9,10,10′,11,11′,13a,14,14a,15,16,16a-hexadecahydrospiro[cyclopropa[e]pyrrolo[1,2-a][1,4]diazacyclopentadecine-2,9′-[1,3]dioxolo[4,5-f]pyrano[2,3-c]quinolin]-6-yl]carbamate], the EC50 with HCV genotype 1b replicon (genotype 1b replicon) is 6.92 nM. Also, in experiment [1] (setting [4]), it took 0.073 nM to reach half-maximal inhibition (IC50).
On the same counts, the results for `CCc1nc2ccc(OC)cc2c2c1O[C@]1(CC2)C[C@H]2C(=O)N[C@]3(C(=O)NS(=O)(=O)C4(C)CC4)C[C@H]3/C=C\CCCCC[C@H](NC(=O)OC(C)(C)C(F)(F)F)C(=O)N2C1` [Example 335, 1,1,1-trifluoro-2-methylpropan-2-yl [(2R,6S,12Z,13aS,14aR,16aS)-5′-ethyl-9′-methoxy-14a-{[(1-methylcyclopropyl)sulfonyl]carbamoyl}-5,16-dioxo-1,1′,2′,5,6,7,8,9,10,11,13a,14,14a,15,16,16a-hexadecahydrospiro[cyclopropa[e]pyrrolo[1,2-a][1,4]diazacyclopentadecine-2,3′-pyrano[2,3-c]quinolin]-6-yl]carbamate] are 2.6 nM and 0.017 nM.
As for `COc1ccc2nc(C)c3c(c2c1)[C@H](F)C[C@]1(C[C@H]2C(=O)N[C@]4(C(=O)NS(=O)(=O)C5(C)CC5)C[C@H]4/C=C\CCCCC[C@H](NC(=O)OC(C)(C)C(F)(F)F)C(=O)N2C1)O3` [Example 355, 1,1,1-trifluoro-2-methylpropan-2-yl [(1′R,2S,6S,12Z,13aS,14aR,16aS)-1′-fluoro-9′-methoxy-5′-methyl-14a-{[(1-methylcyclopropyl)sulfonyl]carbamoyl}-5,16-dioxo-1,1′,2′,5,6,7,8,9,10,11,13a,14,14a,15,16,16a-hexadecahydrospiro[cyclopropa[e]pyrrolo[1,2-a][1,4]diazacyclopentadecine-2,3′-pyrano[2,3-c]quinolin]-6-yl]carbamate], the concentration giving a half-maximal response (EC50) in the experiment with HCV genotype 1b replicon (genotype 1b replicon, K+ salt) is 3.77 nM. The IC50 in experiment [1] (setting [2]) amounted to 0.02 nM.
On to `CC[C@H](C)OC(=O)N[C@H]1CCCCC/C=C\[C@@H]2C[C@@]2(C(=O)NS(=O)(=O)C2(COC)CC2)NC(=O)[C@@H]2C[C@]3(CCc4c(c(C(F)F)nc5ccc(OC)cc45)O3)CN2C1=O` [Example 477, (2S)-butan-2-yl [(2R,6S,12Z,13aS,14aR,16aS)-5′-(difluoromethyl)-9′-methoxy-14a-({[1-(methoxymethyl)cyclopropyl]sulfonyl}carbamoyl)-5,16-dioxo-1,1′,2′,5,6,7,8,9,10,11,13a,14,14a,15,16,16a-hexadecahydrospiro[cyclopropa[e]pyrrolo[1,2-a][1,4]diazacyclopentadecine-2,3′-pyrano[2,3-c]quinolin]-6-yl]carbamate], for which the half-maximal effective concentration (EC50) in the experiment with HCV genotype 1b replicon (HCV replicon, genotype 1b, K+ salt) stood at 5.05 nM. Moreover, in experiment [1] (IC50 [gt-1b], NS3/4A protease TRF assay, genotype 1b enzyme 0.2 nM, K+ salt), the IC50 was 0.019 nM.
For the molecule `Cc1nc2ccc(C(F)(F)F)cc2c2c1O[C@]1(CC2)C[C@H]2C(=O)N[C@]3(C(=O)NS(=O)(=O)C4(C)CC4)C[C@H]3/C=C\CCCCC[C@H](NC(=O)OC(C)(C)C(F)(F)F)C(=O)N2C1` [Example 319, 1,1,1-trifluoro-2-methylpropan-2-yl [(2R,6S,12Z,13aS,14aR,16aS)-5′-methyl-14a-{[(1-methylcyclopropyl)sulfonyl]carbamoyl}-5,16-dioxo-9′-(trifluoromethyl)-1,1′,2′,5,6,7,8,9,10,11,13a,14,14a,15,16,16a-hexadecahydrospiro[cyclopropa[e]pyrrolo[1,2-a][1,4]diazacyclopentadecine-2,3′-pyrano[2,3-c]quinolin]-6-yl]carbamate], in the experiment with HCV genotype 1b replicon (genotype 1b replicon, K+ salt), the EC50 is 17.8 nM. In addition, the IC50 in experiment [1] (setting [2]) is 0.044 nM.
On to `COCC1(S(=O)(=O)NC(=O)[C@@]23C[C@H]2/C=C\CCCCC[C@H](NC(=O)OCC2(C)CC2)C(=O)N2C[C@@]4(CCc5c(c(C(F)(F)F)nc6ccc(OC)cc56)O4)C[C@H]2C(=O)N3)CC1` [Example 494, (1-methylcyclopropyl)methyl [(2R,6S,12Z,13aS,14aR,16aS)-9′-methoxy-14a-({[1-(methoxymethyl)cyclopropyl]sulfonyl}carbamoyl)-5,16-dioxo-5′-(trifluoromethyl)-1,1′,2′,5,6,7,8,9,10,11,13a,14,14a,15,16,16a-hexadecahydrospiro[cyclopropa[e]pyrrolo[1,2-a][1,4]diazacyclopentadecine-2,3′-pyrano[2,3-c]quinolin]-6-yl]carbamate], for which the EC50 with HCV genotype 1b replicon (HCV replicon, genotype 1b) is 1.73 nM. This molecule also returned an IC50 in experiment [1] (setting [3]) of 0.018 nM.

A word on the EC50: it is the concentration that produces a half-maximal response. For orientation: IC50 means the midpoint of a concentration-inhibition curve.
